Reference: patent US9144594B2, “Cathepsin L mediated diseases and associated methods and products” (University of Miami, priority 2005, dated 2015)

B1: CFP-1690K: dynI690K tagged with ECFP (protein)
chain: MGNRGMEDLIPLVNRLQDAFSAIGQNADLDLPQIAVVGGQSAGKSSVLENFVGRDFLPRGSGIVTRRPLVLQLVNATTEYAEFLHCKGKKFTDFEEVRLEIEAETDRVTGTNKGISPVPINLRVYSPHVLNLTLVDLPGMTKVPVGDQPPDIEFQIRDMLMQFVTKENCLILAVSPANSDLANSDALKVAKEVDPQGQRTIGVITKLDLMDEGTDARDVLENKLLPLRRGYIGVVNRSQKDIDGKKDITAALAAERKFFLSHPSYRHLADRMGTPYLQKVLNQQLTNHIRDTLPGLRNKLQSQLLSIEKEVEEYKNFRPDDPARKTKALLQMVQQFAVDFEKRIEGSGDQIDTYELSGGARINRIFHERFPFELVKMEFDEKELRREISYAIKNIHGIRTGLFTPDMAFETIVKKQVKKIREPCLKCVDMVISELISTVRQCTKKLQQYPRLREEMERIVTTHIREREGRTKEQVMLLIDIELAYMNTNHEDFIGFANAQQRSNQMNKKKTSGNQDEILVIRKGWLTINNIGIMKGGSKEYWFVLTAENLSWYKDDEEKEKKYMLSVDNLKLRDVEKGFMSSKHIFALFNTEQRNVYKDYRQLELACETQEEVDSWKASFLRAGVYPERVGDKEKASETEENGSDSFMHSMDPQLERQVETIRNLVDSYMAIVNKTVRDLMPKTIMHLMKNNTKEFIFSELLANLYSCGDQNTLMEESAEQAQRRDEMLRMYHALKEALSIIGDINTTTVSTPMPPPVDDSWLQVQSVPAGRRSPTSSPTPQRRAPAVPPARPGSRGPAPGPPPAGSALGGAPPVPSRPGASPDPFGPPPQVPSRPNRAPPGVPSRSGQASPSRPESPRPPFDL
modifications: left off: large carriers
notes: dynI690K tagged with ECFP
B2: CFP-K44A: dynK44A tagged with ECFP (protein)
chain: MGNRGMEDLIPLVNRLQDAFSAIGQNADLDLPQIAVVGGQSAGASSVLENFVGRDFLPRGSGIVTRRPLVLQLVNATTEYAEFLHCKGKKFTDFEEVRLEIEAETDRVTGTNKGISPVPINLRVYSPHVLNLTLVDLPGMTKVPVGDQPPDIEFQIRDMLMQFVTKENCLILAVSPANSDLANSDALKVAKEVDPQGQRTIGVITKLDLMDEGTDARDVLENKLLPLRRGYIGVVNRSQKDIDGKKDITAALAAERKFFLSHPSYRHLADRMGTPYLQKVLNQQLTNHIRDTLPGLRNKLQSQLLSIEKEVEEYKNFRPDDPARKTKALLQMVQQFAVDFEKRIEGSGDQIDTYELSGGARINRIFHERFPFELVKMEFDEKELRREISYAIKNIHGIRTGLFTPDMAFETIVKKQVKKIREPCLKCVDMVISELISTVRQCTKKLQQYPRLREEMERIVTTHIREREGRTKEQVMLLIDIELAYMNTNHEDFIGFANAQQRSNQMNKKKTSGNQDEILVIRKGWLTINNIGIMKGGSKEYWFVLTAENLSWYKDDEEKEKKYMLSVDNLKLRDVEKGFMSSKHIFALFNTEQRNVYKDYRQLELACETQEEVDSWKASFLRAGVYPERVGDKEKASETEENGSDSFMHSMDPQLERQVETIRNLVDSYMAIVNKTVRDLMPKTIMHLMINNTKEFIFSELLANLYSCGDQNTLMEESAEQAQRRDEMLRMYHALKEALSIIGDINTTTVSTPMPPPVDDSWLQVQSVPAGRRSPTSSPTPQRRAPAVPPARPGSRGPAPGPPPAGSALGGAPPVPSRPGASPDPFGPPPQVPSRPNRAPPGVPSRSGQASPSRPESPRPPFDL
modifications: left off: large carriers
notes: dynK44A tagged with ECFP

Columns and labels:
[1] = tested on: dynamin-dynamin interactions; assay: FLIM analysis of dynamin-dynamin interactions (self-assembly) in podocytes; type: cell-based, mouse
Method: In one embodiment the cell-based assay to monitor dynamin-dynamin interactions is performed on a cultured mouse podocyte cell line and the readout of dynamin self-assembly using fluorescence lifetime imaging microscopy (FLIM). FLIM is based on the fluorescence resonance energy transfer (FRET) between the donor and acceptor that shortens the lifetime of the donor if the acceptor distance is within ≈100 Å (10 nm). […] The assay is based on overexpressing dynamin in podocytes, and subsequently staining fixed cells with monoclonal anti-dynamin antibodies that have been conjugated with donor or acceptor florophores. In one embodiment of the invention, Alexa-488 is used as the donor florophore and Alexa-568 is used as the acceptor florophore. In yet another embodiment the donor florophore is dynamin conjugated enhanced-cyan fluorescence protein (ECFP) and the acceptor is dynamin conjugated enhanced yellow-fluorescence protein (EYFP). It will be appreciated by the person of ordinary skill in the art that numerous combinations of FRET donor and acceptors can be used, which are readily available and known. In one embodiment, the FLIM assay is carried out in COS cells and the donor can be selected from the list consisting of: ECFP-WT, ECFP-1690K, ECFP-K44A, ECFP-K694A, and the -acceptor can be selected from the list consisting of: EYFP, EYFP-WT, EYFP-K44A, EYFP-1690K, EYFP-K694A. In yet another embodiment the FLIM assay is performed in podocytes and the donor is GTPase-Alexa488 and the acceptor is selected from the list consisting of: DAM-Alexa568, GTPase-Alexa568, and Hudyl-Alexa568. Cells are stained by mixing both donor and acceptor florophores in equal amounts, and examining the spatially-restricted lifetime shortening in cells detects the localization of dynamin-dynamin interactions in cells. Since dynamin-dynamin interactions are vital for the function of the podocyte, it will be appreciated by the person of ordinary skill in the art that this assay can now be used to screen peptides, small molecules or drugs which can affect these molecular interactions. For example such molecules are cytocholasin D, jasplakinolide, colchisine, dynK44A, dynK694A, dynWT, dynI690K, dynR725A (SEQ ID NO.4), dynL356Q, G358V, (SEQ ID NO.3) any combination thereof, etc.
In order to test the hypothesis that self-assembly of dynamin was protecting its cathepsin L processing in cultured podocytes, dynamin self-assembly in live cells was examined using fluorescence lifetime imaging microscopy (FLIM). FLIM is based on the fluorescence resonance energy transfer (FRET) between the donor and the acceptor that shortens the lifetime of the donor if the acceptor distance is within ≈100 Å (10 nm). […] A FLIM-assay was developed that specifically detects dynamin self-assembly into the higher order structures in podocytes. The assay is based on overexpressing dynamin in podocytes, and subsequently staining fixed cells with monoclonal anti-dynamin antibodies that have been conjugated with either Alexa-488 (donor florophore) or Alexa-568 (acceptor florophore). Cells are stained by mixing both florophores in equal amounts, and examining lifetime of Alexa-488. […] Importantly, FRET only occurred in the vicinity of the membrane. […] Thus, both dominant activating mutants, dynK694A and dynR725A, are impaired for assembly into a supramolecular structures in podocytes under normal conditions. […] Loss of FRET measured FLIM correlates with the loss of p40 proteolytic fragment in cultured podocytes. And presence of p40 in cells expressing dynR725A under normal conditions correlates with the lack of dynR725A assembly detected by FLIM. The opposite is true for the dynWT; lack of p40 under control conditions when FLIM is present, and appearance of the p40 upon LPS treatment with no measurable FRET. […] Finally, proteolytic processing of dynamin after LPS treatment is also observed in vivo. […]

[2] = tested on: dynamin-dynamin interactions; assay: FLIM analysis of dynamin-dynamin interactions in live COS cells; type: cell-based; settings: for dynamin-dynamin interactions measured by FLIM, in words: COS cells pre-treated; for Mean Lifetime (γ1) ps: Table 3
Text: FLIM is based on the fluorescence resonance energy transfer (FRET) between the donor and acceptor that shortens the lifetime of the donor if the acceptor distance is within ≈100 Å (10 nm). […] To this end, dynamin was tagged with either ECFP or EYFP on its N- and C-termini. Fusion proteins were expressed in COS cells, because these cells are flattened and have minimal background autofluorescence, which allows clear visualization of cells by wide-field microscopy.
The observed decrease in fluorescence lifetime of CFP-dynamin in cells expressing EYFP-dynamin could result from interactions between dynamin monomers within tetramers/dimers, or from interactions between assembled tetramers/dimmers into higher order structures (FIG. 8C). To distinguish these two possibilities, we used FLIM to examine dynI690K. […] The longer average lifetimes of dynI690K than dynwt argue strongly that the assay detects higher order dynamin self-assembly and not tetramer formation.

[3] = donor CFP-WT, acceptor YFP-WT, cells treated with the substance

Molecule	dynamin-dynamin interactions measured by FLIM, in words [2]	Mean Lifetime (γ1) ps [2, 3]	further results
COc1cc2c(c(OC)c1OC)-c1ccc(OC)c(=O)cc1[C@@H](NC(C)=O)CC2 [Colchisine, reference compound]			Mean Lifetime (γ1) ([1]; Table 4, donor GTPase-a488, acceptor Hudy1-a568, in ps): 2295 ± 98
C=C1[C@@H](C)[C@H]2[C@H](Cc3ccccc3)NC(=O)[C@]23[C@H](OC(C)=O)/C=C/[C@@](C)(O)C(=O)[C@@H](C)C/C=C/[C@H]3[C@@H]1O [Cyto. D, cytochalasin D]	significantly promoted dynamin-dynamin interactions	510 ± 29 ps	dynamin self-assembly by FLIM, in words ([1]; podocytes pretreated): decrease in the lifetime of alexa 488 is detected through the cytoplasm
COC(=O)Nc1nc2ccc(C(=O)c3cccs3)cc2[nH]1 [nocodazole]	had no effect on dynamin oligomerization		
b-methyl-cyclodextrin [MBCD]	occurred unchanged	916 ± 427 ps	
B1			Mean Lifetime (γ1) ps ([2]; acceptor YFP not fused to dynamin): 1838 ± 309 ps; Mean Lifetime (γ1) ps ([2]; donor alone, no acceptor): 2292 ± 297 ps
B2			Mean Lifetime (γ1) ps ([2]; acceptor YFP fused to the same dynamin variant): 1858 ± 187 ps
